Results on 6 compounds are retold here after patent US9618453B2, “Aggregation induced emission of fluorescent bioprobes and methods of using the same” (THE HONG KONG UNIVERSITY OF SCIENCE AND TECHNOLOGY, priority 2011, dated 2017).

One data set addresses BSA (35 Cys) (Bos taurus, UniProt P02769). The experiment in a line: Fluorescent labeling of Cys residues of protein with TPEMBR, SDS-PAGE. Set-up: species or system bovine. The conditions noted are these: series of dye/thiol ratios. The procedure:
2.5 μL Tris-HCl (1 M), 2.5 μL TCEP (20 mM), 5 μL BSA (1 mg/mL, 15 μM), and 30 μL urea (8 M in water) was added to a 1.5 mL Eppendorf tube and mixed well. The mixture was incubated at room temperature for 30 min to pre-reduce the disulfide bonds with TCEP. Then, 10 μL of the TPEMBR DMSO stock solution (2.5 mM 5×) was added to the system and made the final volume 50 μL. The reaction mixture was incubated for 3 hours at 50° C. in an Eppendorf Thermomixer. Then, samples were cooled either to room temperature for instant use or frozen for eventual use.
In order to ensure that the Cys residues were sufficiently labeled with TPEMBR, a longer reaction time (usually overnight) at or below room temperature was required. Alternatively, the reaction time could be reduced if labeling was carried out at 50° C. To verify the time-dependence of labeling efficiency, bovine serum albumin (BSA) samples were labeled with TPEMBR for different times ranging from 10 min to 4 h and analyzed by SDS-PAGE. The fluorescence intensity of the labeled BSA increased as the reaction time was extended. The maximum intensity under specific labeling conditions was observed after 3 h and remained unchanged even with an additional 1 h of reaction time (FIGS. 11a and 11b). […] The time-dependent labeling effect provides a way to determine the desirable DOL according to different applications by simply controlling the labeling time. Meanwhile, a lower temperature labeling process with a longer reaction time could be a better choice to obtain fluorescent proteins while maintaining their native structures.
BSA samples were subjected to labeling with different dye concentrations. The SDS-PAGE fluorescence intensity of labeled BSA increased with increasing dye concentration. […] Further increasing the dye concentration could give higher fluorescence intensity due to nonspecific labeling. Clearly, the DOL of protein samples can be controlled by varying the dye concentration.
Specific labeling of Cys residues by TPEMBR was examined through the labeling of proteins with different Cys contents. BSA (35 Cys), yeast enolase (single Cys) and horse myoglobin (0 Cys) were labeled with 0.5 mM of TPEMBR, respectively. The corresponding fluorescent products were analyzed on gel. […] The results further confirmed the specificity of TPEMBR to Cys residue when the working concentration of 0.5 mM was used.
BSA was labeled by each dye with a series of varying dye/thiol ratios. After the electrophoresis, the gel fluorescent image was taken under UV excitation and the fluorescence intensity was obtained from three independent experiments. Fluorescence intensities normalized with the sample with the lowest dye concentration are plotted versus the dye/thiol ratio (FIG. 16). […] This self-quenching effect is inevitable for self-quenching dyes such as 5-BMF and limits these dyes' application on quantification of proteins. In contrast, detection and quantification of proteins with high contents of Cys can be easily achieved by using AIE active molecules such as TPEMBR.

In data set [1] the target is bovine serum albumin (BSA) (Bos taurus, UniProt P02769). The experiment in a line: SDS-PAGE staining of BSA with TPENCS (prestaining, poststaining), compared with CBB and FITC. Conditions: for LOD / limit of detection (LOD): BSA on SDS-PAGE gel, CBB restaining of the same gel; for LOD: TPENCS poststaining; for limit of detection (LOD): TPENCS prestaining; for LOD on nitrocellulose membrane: after transfer from gel; for self-quenching effect versus F/P ratio: equal amount of BSA, series of dye concentrations. As for the experimental part: The protein samples were treated with denaturizing 4× sample buffer containing 62.5 mM Tris (pH 8.5), 20% (v/v) glycerol, 4% SDS (w/v), and 3% (w/v) DTT for 5 min at 85˜95° C. in Protein Lobind Eppendorf cups. Serial dilutions of the proteins were labeled and loaded onto the gel lanes. Electrophoresis was carried out on self-cast polyacrylamide mini-gels (1 mm thick) using a discontinuous buffer system. The separation gel (pH 8.8) contained 12% polyacrylamide. The stacking gel (pH 6.8) contained 4% polyacrylamide. Both gels have an acrylamide/bis ratio of 37.5:1. The running buffer contained 25 mM Tris (pH 8.6), 192 mM glycine and 0.1% SDS (w/v) in water. All solutions were freshly prepared prior to use. SDS-PAGE was carried out on a vertical polyacrylamide gel system at a current of 15 mA until the protein bands reached the interface of the separating gel. Separation was performed at 100 V for two hours.
Fluorescence prestaining of proteins for SDS-PAGE gels was applied prior to the denaturation step. About 1 mg of the protein was dissolved in 1 mL of 0.1 M sodium bicarbonate buffer solution (15 μM). 10 μL of TPENCS DMSO stock solution (5 mM) was added to 100 μL protein solution. The pH was optimized to ˜9 by adding 1 M sodium bicarbonate buffer. The reaction mixture was incubated for 2 h at 37° C. in an Eppendorf Thermomixer. Then, samples were cooled either to room temperature for instant use or frozen for eventual use.
2.5 g of Coomassie blue R250 was dissolved in 1000 mL of 50% (v/v) methanol, 10% (v/v) acetic acid, and 40% (v/v) water with stirring as needed. The solution was filtered to remove any insoluble material. The final concentration of Coomassie blue R250 was 0.25% (w/v). After electrophoresis, the apparatus was disassembled and the gel was immerged into CBB solution. The gel was stained at room temperature overnight with gentle agitation. The Coomassie stain was removed by aspiration after staining. The gel was then immerged into the destaining solution composed of 50% (v/v) methanol, 10% (v/v) acetic acid, and 40% (v/v) water which allowed the gel to destain with gentle agitation. The destaining step was repeated several times, removing destaining solution at each change by aspiration. The destaining was continued until the protein bands were seen clearly without any background staining of the gel.
The protocol of gel fluorescent poststaining with TPENCS was similar to that of the CBB poststaining. The only difference was that the composition of the staining solution was prepared by mixing 1 mL DMSO stock solution of TPENCS (5 mM) with 20 mL 10% SDS aqueous (w/v) solution, and the pH was optimized to ˜9.0 by adding 1 M sodium bicarbonate buffer. The destaining solution was 10% SDS aqueous (w/v) solution. Similar to the destaining protocol of Coomassie brilliant blue, the gel was immerged into the 10% SDS aqueous (w/v) solution and destained with gentle agitation. The destaining solution was changed every two hours and the whole destaining process was finished within six hours.
Since nearly all kinds of proteins have reactive amine groups (lysine residues) on their molecular chains, bovine serum albumin (BSA), a commonly used protein, was employed as a test sample to verify the staining effect of TPENCS. The prestained BSA was loaded onto the gel lane b and a pure BSA sample was loaded on lane c at the same time as a control. After electrophoresis, the gel fluorescent image was taken under UV excitation within the Gel Doc XR+ documentation system (FIG. 2a). […] The gel was then introduced to the poststaining procedure and the fluorescent image was again obtained (FIG. 2b).

The nature of data set [2]: Fluorescence quantum efficiency in the solid state. The data set is classed as physicochemical. The text has this:
(§1) Tetrahydrofuran (THF; Labscan) was distilled under nitrogen from sodium benzophenone ketyl immediately prior to use. Acrylamide was purchased from Bio-Rad. Aminoallyl-dUTP (aa-dUTP), dNTPs, DNase I (RNase-free), DNA Polymerase I, Klenow Fragment exo-, Random Hexamer Primer, Long PCR Enzyme Mix and GeneJET™ PCR Purification Kit, GeneRuler™ 100 bp Plus DNA Ladder (ready-to-use, 100-3000 bp), 6×DNA Loading Dye were purchased from Fermentas (Thermo Scientific). Deep VentR™ exo-DNA Polymerase was purchased from New England Biolabs (NEB). Synthesized oligonucleotides (primers) were purchased from Tech Drogon Limited. GelRed™ Nucleic Acid Gel Stain (10000× in water) was purchased from Biotium. Other chemicals, reagents and solvents were all purchased from Aldrich or Invitrogen. ^1H and ^13C NMR spectra were measured on a Bruker ARX 400 NMR spectrometer using CDCl3 as solvent. High-resolution mass spectra (HRMS) were taken on a Finnigan TSQ 7000 triple quadrupole spectrometer in a MALDI-TOF mode. UV spectra were measured on a Milton Roy Spectronic 3000 Array spectrophotometer. Fluorescence (FL) spectra were recorded on a Perkin-Elmer LS 55 spectrofluorometer. FL quantum yields (ΦF) of amorphous powders of siloles were measured using C-701 Time-Resolved Spectrofluorometer with the integrating sphere as accessory.

The nature of data set [3]: UV absorption of SITC for DOL calculation (Beer-Lambert law). In kind it is physicochemical. As for the experimental part:
The 1061 bp template DNA was a PCR product of plasmid DNA. dTTP was replaced with increasing amount of SITC-dUTP. DOL of labeled DNA (number of dyes per 100 bases) were calculated from UV absorption base on Beer-Lambert law. The calculated molar extinction coefficient (ε) of SITC is 10277 cm^−1M^−1 and its correction factor (CF) is 2.08.

Data set [4] in a line: Photoluminescence in THF/water mixtures with different water fractions (aggregation induced emission). The data set is classed as physicochemical.
From the text: The AIE of TPENCS is illustrated in FIG. 1. […] With water content ranging from 0-70%, the fluorescence intensity remained at a very low level. When the water concentration was in the 80-90 vol % range, a rapid and dramatic increase of the fluorescence intensity with increasing water content was observed (FIG. 1b). The PL intensity of TPENCS in the water/THF solution with a water fraction of 90 vol % was approximately 50-fold higher than that in the mixture with 70% water. The quantum efficiency of TPENCS was 52.2% in the solid state.
Similar to other AIE active molecules, TPEMBR only gave weak emission in good solvents such as THF. […] To quantify the effect of water content on the degree of fluorescent emission enhancement, the photoluminescence intensity of TPEMBR was measured where the fraction of water was increased from 0 to 90 vol %. With the water content in the range of 0-70%, the fluorescent intensity remained at a very low level. With the water fraction reaching the 80-90 vol % range, a rapid and dramatic increase of the fluorescent intensity was observed (FIG. 9b). The photoluminescence intensity of TPEMBR in the water/THF solution with a water fraction of 90 vol % was approximately 50-fold stronger than that in the mixture with 70% water. In the solid state, the quantum efficiency of TPEMBR was determined to be 31.7%.
The AIE of SITC is illustrated in FIGS. 17a and 17b. The wavelength at maximum absorption of SITC was at 363 nm and the emission maximum was at 490 nm. […] To quantify the effect of water content on the elevation of the fluorescent emission, the photoluminescence intensity of SITC was measured with concentration of water increasing from 0 to 90 vol %. With water content ranging from 0-70%, the fluorescent intensity remained at a very low level. When the water concentration was in the 80-95 vol % range, a rapid and dramatic increase of the fluorescent intensity with increasing water content was observed (FIG. 17b). The photoluminescence intensity of SITC in the water/THF solution with a water fraction of 95 vol % was approximately 50-fold higher than that in the mixture with 70% water. The quantum efficiency of SITC was 45.8% in the solid state.
as §1
Structure of dye is confirmed by standard spectroscopic methods (FIGS. 23, 26a, and 27a). In order to confirm TPEITC is AIE-active, we investigated its fluorescence in THF/water mixtures with different water fractions. […] TPEITC molecules with hydrophobic aromatic cores precipitated and became aggregate in the nonsolvent mixture. Aggregation blocks the nonradiative relaxation channels and populates the radiative decay, thus resulting in high luminescence. […]

bovine serum albumin (BSA), sequence (P02769 25-607): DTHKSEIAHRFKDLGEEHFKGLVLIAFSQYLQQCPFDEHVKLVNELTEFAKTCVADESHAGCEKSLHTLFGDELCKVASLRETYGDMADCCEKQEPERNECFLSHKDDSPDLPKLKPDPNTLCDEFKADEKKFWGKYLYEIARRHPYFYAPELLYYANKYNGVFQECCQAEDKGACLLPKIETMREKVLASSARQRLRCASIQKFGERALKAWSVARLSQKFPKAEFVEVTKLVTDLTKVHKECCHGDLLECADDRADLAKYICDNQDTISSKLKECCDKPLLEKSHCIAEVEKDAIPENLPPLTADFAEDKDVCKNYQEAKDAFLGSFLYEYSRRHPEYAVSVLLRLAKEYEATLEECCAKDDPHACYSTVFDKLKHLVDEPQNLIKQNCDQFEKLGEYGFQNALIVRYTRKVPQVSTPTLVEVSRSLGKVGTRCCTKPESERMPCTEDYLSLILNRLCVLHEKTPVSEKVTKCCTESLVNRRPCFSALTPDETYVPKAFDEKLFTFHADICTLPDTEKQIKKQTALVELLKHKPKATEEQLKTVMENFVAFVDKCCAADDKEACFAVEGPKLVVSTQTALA
BSA (35 Cys), sequence (P02769 25-607): as above

Regarding `O=C1OC2(c3ccc(O)cc3Oc3cc(O)ccc32)c2ccc(CBr)cc21` [5-BMF, reference compound], the “self-quenching effect versus dye/thiol ratio” value on BSA (35 Cys) came out at 30 times.

`CCOc1ccc(Nc2ccc(C(=C3C=CC(=[N+](CC)Cc4cccc(S(=O)(=O)[O-])c4)C=C3)c3ccc(N(CC)Cc4cccc(S(=O)(=O)[O-])c4)cc3)cc2)cc1.[Na+]` [CBB, reference compound]: in data set [1], the LOD entry was “remained the same” and the “limit of detection (LOD)” value is 0.2 µg.

As for `C[Si]1(C)C(c2ccc(CN=C=S)cc2)=C(c2ccccc2)C(c2ccccc2)=C1c1ccc(CN=C=S)cc1` [SITC, 1,1-dimethyl-2,5-bis[4-(isothiocyanatemethyl)phenyl]-3,4-diphenyl silole], the quantum efficiency in data set [2] was 45.8%. In data set [3], the “calculated molar extinction coefficient (ε)” value is 10277 cm^−1M^−1 and the “correction factor (CF)” value is 2.08. Moreover, in data set [4], the emission maximum was 490 nm and the “wavelength at maximum absorption” value was 363 nm. In addition, in data set [4] (water/THF solution, water fraction 95 vol %), the “photoluminescence intensity relative to the mixture with 70% water” value is recorded as “approximately 50 fold”.

On to `S=C=NCc1ccc(C(=C(c2ccccc2)c2ccccc2)c2ccccc2)cc1` [TPEITC], for which the “fluorescence intensity (I) relative to pure THF solution (I0)” value in data set [4] (THF/water mixture, water content 90 vol %) is recorded as “about 36177 fold”.

For `S=C=NCc1ccc(C(=C(c2ccccc2)c2ccc(CN=C=S)cc2)c2ccccc2)cc1` [TPENCS, 1,2-bis[4-(isothiocyanatemethyl)phenyl]-1,2-diphenylethene], in data set [1], the LOD amounted to 0.1 µg and the “limit of detection (LOD)” value worked out at 0.2 µg. In addition, the “LOD on nitrocellulose membrane” value in data set [1] (poststaining) worked out at 1 µg. Moreover, the “effect on protein migration” value in data set [1] (prestained versus poststained BSA bands) is “no significant effect on protein migration rate”. Besides, in data set [1] (prestaining), the “LOD on nitrocellulose membrane” value amounted to 2 µg and the “self-quenching effect versus F/P ratio” value was “kept increasing”. Moreover, the quantum efficiency in data set [2] was 52.2%. Further, the “PL intensity relative to the mixture with 70% water” value in data set [4] (water/THF solution, water fraction 90 vol %) is “approximately 50 fold”.

For the compound “fluorescein isothiocyanate [FITC, reference compound]”, the “self-quenching effect versus F/P ratio” value in data set [1] (prestaining) was 1000 times.
